{"source": "patent US20220267310A1", "about": "“QUINAZOLINE AND CINNOLINE DERIVATIVES AS DNA-PK INHIBITOR” (MEDSHINE DISCOVERY INC., priority 2019, published 2022)", "key": {"DNA-PK (h)": {"target": "T1, DNA-PK (h) (Homo sapiens, UniProt P78527)", "T1 construct": "Eurofins Pharma Discovery Service (contract assay)", "experiment": "DNA-PK kinase inhibitory activity (HTRF, Eurofins)", "format": "biochemical", "settings": "ATP: 10 μM", "method": "This experiment was tested at Eurofins Pharma Discovery Service, Reaction Biology Corp. (RBC)\n[…] DNA-PK: Mg/ATP; GST-cMyc-p53; EDTA; Ser15 antibody; ATP: 10 μM; biotinylated phosphatidylinositol-3,4,5-triphosphate; GST label GRP1 PH domain; streptavidin and phycocyanin; europium-labelled monoclonal antibody against GST.\nDNA-PK (h) was incubated in a determination buffer containing 50 nM GST-cMyc-p53 and Mg/ATP (density as required). The reaction was initiated by adding a mixture of Mg/ATP. After incubating at room temperature for 30 min, a termination solution containing EDTA was added to terminate the reaction. Finally, a detection buffer (containing labeled anti-GST monoclonal antibody and europium-labeled anti-phosphate Ser15 antibody against phosphorylated p53) was added. Then, the board was read in time-resolved fluorescence mode, and a Homogeneous Time Resolved Fluorescence (HTRF) signal was measured according to the formula HTRF=10000×(Em665 nm/Em620 nm)."}, "[1]": {"tested_on": "human head and neck cancer FaDu cell subcutaneous xenograft tumor", "experiment": "FaDu subcutaneous xenograft, mono and combination with radiotherapy", "format": "in vivo", "settings": "for Tumor volume (mm^3), 3 days after administration: day 3; for Tumor volume (mm^3), 3 days after administration / Tumor volume (mm^3), 7 days after administration / Tumor volume (mm^3), 10 days after administration / Tumor volume (mm^3), 14 days after administration / Tumor volume (mm^3), 17 days after administration / Tumor volume (mm^3), 23 days after administration / Tumor volume (mm^3), 28 days after administration / Tumor volume (mm^3), 31 days after administration / Tumor volume (mm^3), 35 days after administration / Tumor volume (mm^3), 42 days after administration / Tumor volume (mm^3), 49 days after administration / Tumor volume (mm^3), 56 days after administration / Tumor volume (mm^3), 63 days after administration / Tumor volume (mm^3), 70 days after administration / Tumor volume (mm^3) (0th day) / Tumor volume (mm^3) (21th day): average ± SEM, n = 8; for Tumor volume (mm^3), 7 days after administration: day 7; for Tumor volume (mm^3), 10 days after administration: day 10; for Tumor volume (mm^3), 14 days after administration: day 14; for Tumor volume (mm^3), 17 days after administration: day 17; for Tumor volume (mm^3), 23 days after administration: day 23; for Tumor volume (mm^3), 28 days after administration: day 28; for Tumor volume (mm^3), 31 days after administration: day 31; for Tumor volume (mm^3), 35 days after administration: day 35; for Tumor volume (mm^3), 42 days after administration: day 42; for Tumor volume (mm^3), 49 days after administration: day 49; for Tumor volume (mm^3), 56 days after administration: day 56; for Tumor volume (mm^3), 63 days after administration: day 63; for Tumor volume (mm^3), 70 days after administration: day 70; for RTV (21th day) / T/C (%) (21th day) / TGI (%) (21th day) / Tumor volume (mm^3) (0th day) / Tumor volume (mm^3) (21th day): PO", "method": "Experiment purpose: The antitumor activity of the tested compound was evaluated in a nude mouse model of human head and neck cancer FaDu cell subcutaneous xenograft tumor\nExperimental animals: Female BALB/c nude mice, 6-8 weeks old, weighing 17-23 grams; supplier: B&K Universal Group Limited\nHuman head and neck cancer FaDu cell (ATCC, Manassas. Virginiaite, item number: HTB-43) was cultured in vitro in a culture condition of EMEM medium with 10% fetal bovine serum, 100 U/mL penicillin and 100 μg/mL streptomycin, incubated at 37° C. and 5% CO2. Conventional digestive treatment passage was carried out using pancreatic enzyme—EDTA twice a week.\nEach mouse was subcutaneously inoculated with 0.1 mL ([…]) FaDu cells at the right dorsal position, and when the average tumor volume reaches about 106 mm^3, randomization was used for initiating drug administration.\nThe tested compound was prepared as a 5 mg/mL clarified solution with 10% DMSO+50% polyethylene glycol 400+40% water as the solvent. Preparation was conducted every three days.\nThe experimental indicators refers to study whether tumor growth was inhibited, delayed, or cured. Tumor diameter was measured twice a week with a vernier caliper. The calculation formula of the tumor volume was V=0.5a×b^2, and a and b represent the long diameter and short diameter of the tumor, respectively.\nThe antitumor efficacy of the compound was evaluated by TGI (%) or relative tumor proliferation rate T/C (%). TGI (%) reflects the tumor growth inhibition rate. The calculation of TGI (%): TGI (%)=[1−(average tumor volume at the end of administration of a certain treatment group−average tumor volume at the beginning of administration of the treatment group)/(average tumor volume at the end of treatment in solvent control group−average tumor volume at the beginning of treatment in solvent control group)]×control group.\nRelative tumor proliferation rate T/C (%): the calculation formula was as follows: T/C %=[…] TRTV/CRTV group (TRTV: treatment group RTV: CRTV: negative control group RTV). According to results of tumor measurement. Relative Tumor Volume (RTV) was calculated by the formula RTV=Vt/V0, where V0 was the average tumor volume measured in group administration (i.e., d0), and Vt was the average tumor volume measured in a certain single measurement. TRTV and CRTV collect data on the same day.\nStatistic analysis includes an average value and a standard error (SEM) of tumor volume at each time point for each group. […] If there was no significant difference in F value, Dunnet (2-sided) method was applied to analysis. All data were analyzed using SPSS 17.0. P<0.05 was considered as having a significant difference."}, "[2]": {"settings": "25 mg/kg, QD + radiotherapy 2 Gy"}, "[3]": {"settings": "50 mg/kg, QD + radiotherapy 2 Gy"}}, "data": [{"smiles": "COc1ccc(C(O)c2cc(-c3cnnc4c(F)c(N5CCOCC5)cc(F)c34)c(F)cc2Cl)nn1", "note": "(single isomer, unassigned) [Embodiment 19]", "values": [{"measurement": "IC50", "setting": "DNA-PK (h)", "value": 2.1, "unit": "nM"}, {"measurement": "Tumor volume (mm^3), 3 days after administration", "setting": "[1]; 25 mg/kg + 2 Gy", "value": "172 ± 16", "unit": "mm^3"}, {"measurement": "Tumor volume (mm^3), 7 days after administration", "setting": "[1]; 25 mg/kg + 2 Gy", "value": "136 ± 11", "unit": "mm^3"}, {"measurement": "Tumor volume (mm^3), 10 days after administration", "setting": "[1]; 25 mg/kg + 2 Gy", "value": "76 ± 11", "unit": "mm^3"}, {"measurement": "Tumor volume (mm^3), 14 days after administration", "setting": "[1]; 25 mg/kg + 2 Gy", "value": "29 ± 5", "unit": "mm^3"}, {"measurement": "Tumor volume (mm^3), 17 days after administration", "setting": "[1]; 25 mg/kg + 2 Gy", "value": "11 ± 3", "unit": "mm^3"}, {"measurement": "Tumor volume (mm^3), 23 days after administration", "setting": "[1]; 25 mg/kg + 2 Gy", "value": "1 ± 1", "unit": "mm^3"}, {"measurement": "Tumor volume (mm^3), 28 days after administration", "setting": "[1]; 25 mg/kg + 2 Gy", "value": "0 ± 0", "unit": "mm^3"}, {"measurement": "Tumor volume (mm^3), 31 days after administration", "setting": "[1]; 25 mg/kg + 2 Gy", "value": "0 ± 0", "unit": "mm^3"}, {"measurement": "Tumor volume (mm^3), 35 days after administration", "setting": "[1]; 25 mg/kg + 2 Gy", "value": "0 ± 0", "unit": "mm^3"}, {"measurement": "Tumor volume (mm^3), 42 days after administration", "setting": "[1]; 25 mg/kg + 2 Gy", "value": "0 ± 0", "unit": "mm^3"}, {"measurement": "Tumor volume (mm^3), 49 days after administration", "setting": "[1]; 25 mg/kg + 2 Gy", "value": "0 ± 0", "unit": "mm^3"}, {"measurement": "Tumor volume (mm^3), 56 days after administration", "setting": "[1]; 25 mg/kg + 2 Gy", "value": "0 ± 0", "unit": "mm^3"}, {"measurement": "Tumor volume (mm^3), 63 days after administration", "setting": "[1]; 25 mg/kg + 2 Gy", "value": "0 ± 0", "unit": "mm^3"}, {"measurement": "Tumor volume (mm^3), 70 days after administration", "setting": "[1]; 25 mg/kg + 2 Gy", "value": "0 ± 0", "unit": "mm^3"}, {"measurement": "RTV (21th day)", "setting": "[1]; [2]", "value": "0.01 ± 0.01"}, {"measurement": "T/C (%) (21th day)", "setting": "[1]; [2]", "value": 0.08, "unit": "%"}, {"measurement": "TGI (%) (21th day)", "setting": "[1]; [2]", "value": 108.61, "unit": "%"}, {"measurement": "Tumor volume (mm^3) (0th day)", "setting": "[1]; 25 mg/kg, QD + radiotherapy 2 Gy, 5-day radiotherapy, 2-day withdrawal", "value": "106 ± 6", "unit": "mm^3"}, {"measurement": "Tumor volume (mm^3) (21th day)", "setting": "[1]; [2]", "value": "1 ± 1", "unit": "mm^3"}, {"measurement": "Tumor volume (mm^3), 3 days after administration", "setting": "[1]; 50 mg/kg + 2 Gy", "value": "175 ± 14", "unit": "mm^3"}, {"measurement": "Tumor volume (mm^3), 7 days after administration", "setting": "[1]; 50 mg/kg + 2 Gy", "value": "155 ± 17", "unit": "mm^3"}, {"measurement": "Tumor volume (mm^3), 10 days after administration", "setting": "[1]; 50 mg/kg + 2 Gy", "value": "97 ± 16", "unit": "mm^3"}, {"measurement": "Tumor volume (mm^3), 14 days after administration", "setting": "[1]; 50 mg/kg + 2 Gy", "value": "45 ± 10", "unit": "mm^3"}, {"measurement": "Tumor volume (mm^3), 17 days after administration", "setting": "[1]; 50 mg/kg + 2 Gy", "value": "12 ± 5", "unit": "mm^3"}, {"measurement": "Tumor volume (mm^3), 23 days after administration", "setting": "[1]; 50 mg/kg + 2 Gy", "value": "1 ± 1", "unit": "mm^3"}, {"measurement": "Tumor volume (mm^3), 28 days after administration", "setting": "[1]; 50 mg/kg + 2 Gy", "value": "1 ± 0", "unit": "mm^3"}, {"measurement": "Tumor volume (mm^3), 31 days after administration", "setting": "[1]; 50 mg/kg + 2 Gy", "value": "0 ± 0", "unit": "mm^3"}, {"measurement": "Tumor volume (mm^3), 35 days after administration", "setting": "[1]; 50 mg/kg + 2 Gy", "value": "0 ± 0", "unit": "mm^3"}, {"measurement": "Tumor volume (mm^3), 42 days after administration", "setting": "[1]; 50 mg/kg + 2 Gy", "value": "0 ± 0", "unit": "mm^3"}, {"measurement": "Tumor volume (mm^3), 49 days after administration", "setting": "[1]; 50 mg/kg + 2 Gy", "value": "0 ± 0", "unit": "mm^3"}, {"measurement": "Tumor volume (mm^3), 56 days after administration", "setting": "[1]; 50 mg/kg + 2 Gy", "value": "0 ± 0", "unit": "mm^3"}, {"measurement": "Tumor volume (mm^3), 63 days after administration", "setting": "[1]; 50 mg/kg + 2 Gy", "value": "0 ± 0", "unit": "mm^3"}, {"measurement": "Tumor volume (mm^3), 70 days after administration", "setting": "[1]; 50 mg/kg + 2 Gy", "value": "0 ± 0", "unit": "mm^3"}, {"measurement": "animal death or euthanasia during the study", "setting": "[1]; 50 mg/kg alone, one animal of the group", "value": "euthanized 22 days after the start of administration"}, {"measurement": "Tumor volume (mm^3), 3 days after administration", "setting": "[1]; 50 mg/kg alone", "value": "189 ± 18", "unit": "mm^3"}, {"measurement": "Tumor volume (mm^3), 7 days after administration", "setting": "[1]; 50 mg/kg alone", "value": "375 ± 28", "unit": "mm^3"}, {"measurement": "Tumor volume (mm^3), 10 days after administration", "setting": "[1]; 50 mg/kg alone", "value": "568 ± 50", "unit": "mm^3"}, {"measurement": "Tumor volume (mm^3), 14 days after administration", "setting": "[1]; 50 mg/kg alone", "value": "946 ± 108", "unit": "mm^3"}, {"measurement": "Tumor volume (mm^3), 17 days after administration", "setting": "[1]; 50 mg/kg alone", "value": "1120 ± 131", "unit": "mm^3"}, {"measurement": "Tumor volume (mm^3), 23 days after administration", "setting": "[1]; 50 mg/kg alone", "value": "1808 ± 372", "unit": "mm^3"}, {"measurement": "RTV (21th day)", "setting": "[1]; [3]", "value": "0.01 ± 0.01"}, {"measurement": "T/C (%) (21th day)", "setting": "[1]; [3]", "value": 0.08, "unit": "%"}, {"measurement": "TGI (%) (21th day)", "setting": "[1]; [3]", "value": 108.64, "unit": "%"}, {"measurement": "Tumor volume (mm^3) (0th day)", "setting": "[1]; 50 mg/kg, QD + radiotherapy 2 Gy, 5-day radiotherapy, 2-day withdrawal", "value": "106 ± 5", "unit": "mm^3"}, {"measurement": "Tumor volume (mm^3) (21th day)", "setting": "[1]; [3]", "value": "1 ± 1", "unit": "mm^3"}, {"measurement": "RTV (21th day)", "setting": "[1]; 50 mg/kg, QD, alone", "value": "14.18 ± 2.04"}, {"measurement": "T/C (%) (21th day)", "setting": "[1]; 50 mg/kg, QD, alone", "value": 114.35, "unit": "%"}, {"measurement": "TGI (%) (21th day)", "setting": "[1]; 50 mg/kg, QD, alone", "value": "−15.37", "unit": "%"}, {"measurement": "Tumor volume (mm^3) (0th day)", "setting": "[1]; 50 mg/kg, QD, alone", "value": "106 ± 5", "unit": "mm^3"}, {"measurement": "Tumor volume (mm^3) (21th day)", "setting": "[1]; 50 mg/kg, QD, alone", "value": "1501 ± 242", "unit": "mm^3"}]}]}
